Patent US11479559B2, “Urea-substituted aromatic ring-linked dioxinoquinoline compounds, preparation method and uses thereof” (BEIJING SCITECH-MQ PHARMACEUTICALS LIMITED, priority 2018, dated 2022)
Where two headings read alike, the source gives them in different places.

How the values were obtained:
RET tyrosine kinase = RET tyrosine kinase (Homo sapiens (Human), UniProt P07949); assay: Assay of small molecular compounds for inhibiting the activity of RET kinase (LANCE TR-FRET)
Procedure: (§1) The assay is based on the LANCE TR-FRET technology of Perkin Elmer Inc., and the assay method is as follows:
(§2) 2.5 μL of the gradient-diluted compounds were taken with a transfer pipette to a 384-well plate.
Addition of enzyme: 5 μL of 2× RET kinase solution (concentration was 0.8 nM) was taken with a transfer pipette to the corresponding reaction well of the 384-well plate, mixed well and pre-reacted at room temperature for 30 minutes.
2.5 μL 4× Ultra ULight™-JAK-1 (Tyr1023) Peptide (concentration was 200 nM)/ATP (concentration was 40 μM) mixture was taken with a transfer pipette to the corresponding reaction well of the 384-well plate.
(§3) The final concentration of DMSO in the reaction system was 4%.
(§4) The mixture was mixed well and then centrifuged and reacted at room temperature in dark for 60 min.
(§5) The 384-well plate was placed into the Envision plate reader and the signal was detected using the appropriate program.

VEGFR2 tyrosine kinase = VEGFR2 tyrosine kinase (Homo sapiens (Human), UniProt P35968); assay: Assay of small molecular compounds for inhibiting the activity of VEGFR-2 kinase (LANCE TR-FRET)
VEGFR2 tyrosine kinase, sequence (P35968 20-1356): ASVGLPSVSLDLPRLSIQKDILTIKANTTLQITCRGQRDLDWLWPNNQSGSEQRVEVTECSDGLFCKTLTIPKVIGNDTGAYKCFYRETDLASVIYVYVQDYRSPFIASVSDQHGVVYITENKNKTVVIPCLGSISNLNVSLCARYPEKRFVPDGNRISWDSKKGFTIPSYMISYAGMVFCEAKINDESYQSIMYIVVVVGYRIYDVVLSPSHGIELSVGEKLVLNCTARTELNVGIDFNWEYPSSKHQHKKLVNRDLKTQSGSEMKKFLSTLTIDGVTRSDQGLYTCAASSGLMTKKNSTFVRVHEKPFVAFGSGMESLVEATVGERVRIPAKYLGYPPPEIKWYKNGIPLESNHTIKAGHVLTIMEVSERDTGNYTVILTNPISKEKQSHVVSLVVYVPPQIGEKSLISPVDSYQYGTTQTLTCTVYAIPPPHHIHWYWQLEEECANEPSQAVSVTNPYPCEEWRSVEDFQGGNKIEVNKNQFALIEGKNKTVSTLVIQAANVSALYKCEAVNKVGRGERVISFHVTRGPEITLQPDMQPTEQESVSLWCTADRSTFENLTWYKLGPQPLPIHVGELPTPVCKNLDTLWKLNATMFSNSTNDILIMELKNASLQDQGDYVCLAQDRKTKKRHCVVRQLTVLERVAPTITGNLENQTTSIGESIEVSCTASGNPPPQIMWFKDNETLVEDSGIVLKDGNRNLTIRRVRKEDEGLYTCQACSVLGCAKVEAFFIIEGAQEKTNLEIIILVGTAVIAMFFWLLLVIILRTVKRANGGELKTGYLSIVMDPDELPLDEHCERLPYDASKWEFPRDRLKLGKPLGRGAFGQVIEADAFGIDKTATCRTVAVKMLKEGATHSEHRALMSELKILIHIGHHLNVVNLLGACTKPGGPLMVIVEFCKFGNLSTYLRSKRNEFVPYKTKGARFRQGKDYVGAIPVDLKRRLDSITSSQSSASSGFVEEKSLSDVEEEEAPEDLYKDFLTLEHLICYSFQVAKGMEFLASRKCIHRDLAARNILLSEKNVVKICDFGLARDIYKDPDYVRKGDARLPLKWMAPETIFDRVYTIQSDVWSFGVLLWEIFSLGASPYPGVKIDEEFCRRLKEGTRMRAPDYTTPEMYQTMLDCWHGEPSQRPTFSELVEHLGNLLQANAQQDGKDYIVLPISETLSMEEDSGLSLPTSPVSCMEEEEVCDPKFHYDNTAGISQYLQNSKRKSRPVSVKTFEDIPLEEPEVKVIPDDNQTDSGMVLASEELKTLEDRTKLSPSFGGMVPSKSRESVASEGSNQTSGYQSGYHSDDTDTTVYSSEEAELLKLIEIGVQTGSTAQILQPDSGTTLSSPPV
Procedure: as §1, §2
Addition of enzyme: 5 μL of 2× VEGFR2 kinase solution (concentration was 0.5 nM) was taken with a transfer pipette to the corresponding reaction well of the 384-well plate, mixed well and pre-reacted at room temperature for 30 minutes.
2.5 μL 4× Ultra ULight™-JAK-1 (Tyr1023) Peptide (concentration was 200 nM)/ATP (concentration was 40 μMM) mixture was taken with a transfer pipette to the corresponding reaction well of the 384-well plate.
Negative control: 2.5 μL/well 4× substrate/ATP mixture and 7.5 μL 1× Kinase Assay Buffer were added to the wells of the 384-well plate.
as §3, §4, §5

RET tyrosine kinase, sequence (P07949 29-1114): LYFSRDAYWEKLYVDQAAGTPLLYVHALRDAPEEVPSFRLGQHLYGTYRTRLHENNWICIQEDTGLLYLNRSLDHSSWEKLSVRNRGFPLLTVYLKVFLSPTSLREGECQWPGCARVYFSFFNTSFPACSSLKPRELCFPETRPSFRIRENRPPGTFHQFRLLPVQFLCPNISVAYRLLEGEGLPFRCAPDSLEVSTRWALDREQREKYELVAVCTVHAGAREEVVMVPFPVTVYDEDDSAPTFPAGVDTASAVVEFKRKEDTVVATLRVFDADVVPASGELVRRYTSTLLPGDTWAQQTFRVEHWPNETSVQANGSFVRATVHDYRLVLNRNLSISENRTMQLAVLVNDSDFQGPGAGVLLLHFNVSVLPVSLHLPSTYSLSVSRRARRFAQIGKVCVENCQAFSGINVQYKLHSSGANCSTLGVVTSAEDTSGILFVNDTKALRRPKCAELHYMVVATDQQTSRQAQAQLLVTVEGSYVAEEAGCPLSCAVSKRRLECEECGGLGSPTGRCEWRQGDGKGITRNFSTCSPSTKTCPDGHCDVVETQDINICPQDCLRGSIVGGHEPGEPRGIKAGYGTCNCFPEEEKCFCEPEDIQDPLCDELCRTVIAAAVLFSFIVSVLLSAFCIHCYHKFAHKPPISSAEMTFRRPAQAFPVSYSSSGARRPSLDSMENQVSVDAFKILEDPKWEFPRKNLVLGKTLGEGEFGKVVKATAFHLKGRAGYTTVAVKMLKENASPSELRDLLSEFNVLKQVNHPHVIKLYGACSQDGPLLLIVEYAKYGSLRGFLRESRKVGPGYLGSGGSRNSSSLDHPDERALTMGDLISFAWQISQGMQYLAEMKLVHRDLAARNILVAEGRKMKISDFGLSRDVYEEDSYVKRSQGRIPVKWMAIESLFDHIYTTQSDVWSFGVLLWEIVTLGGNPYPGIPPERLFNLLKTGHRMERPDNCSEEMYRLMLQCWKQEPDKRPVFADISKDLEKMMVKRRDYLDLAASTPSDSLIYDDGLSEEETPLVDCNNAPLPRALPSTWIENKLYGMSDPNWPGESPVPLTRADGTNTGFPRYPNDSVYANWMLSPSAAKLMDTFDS

| Compound | IC50 (RET tyrosine kinase; read-out: RET IC50) [µM] | IC50 (VEGFR2 tyrosine kinase; read-out: VEGFR-2 IC50) [µM] | IC50 (RET tyrosine kinase) [µM] | IC50 (VEGFR2 tyrosine kinase) [µM] |
| --- | --- | --- | --- | --- |
| CC1(N)CCN(CCCOc2cc3nccc(Oc4ccc(NC(=O)Nc5ccc(Cl)c(C(F)(F)F)c5)cc4)c3c3c2OCCO3)CC1 [Example 26, 1-(4-((5-(3-(4-amino-4-methylpiperidin-1-yl)propoxy)-2,3-dihydro-[1,4]dioxino[2,3-f]quinolin-10-yl)oxy)phenyl)-3-(4-chloro-3-(trifluoromethyl)phenyl)urea] | < 0.05 | < 0.05 |  |  |
| O=C(Nc1ccc(Oc2ccnc3cc(OCCO)c4c(c23)OCCO4)cc1)Nc1ccc(Cl)c(C(F)(F)F)c1 [Example 14, 1-(4-chloro-3-(trifluoromethyl)phenyl)-3-(4-((5-(2-hydroxyethoxy)-2,3-dihydro-[1,4]dioxino[2,3-f]quinolin-10-yl)oxy)phenyl)urea] | < 0.05 | < 0.05 |  |  |
| CCOc1cc2nccc(Oc3ccc(NC(=O)NC4CC4)c(F)c3)c2c2c1OCCO2 [Example 90, 1-cyclopropyl-3-(4-((5-ethoxy-2,3-dihydro-[1,4]dioxino[2,3-f]quinolin-10-yl)oxy)-2-fluorophenyl)urea] | < 0.05 | < 0.05 |  |  |
| O=C(Nc1ccc(Oc2ccnc3cc(OC4CCOC4)c4c(c23)OCCO4)cc1Cl)NC1CC1 (stereo not shown) [Example 66, 1-(2-chloro-4-((5-((tetrahydrofuran-3-yl)oxy)-2,3-dihydro-[1,4]dioxino[2,3-f]quinolin-10-yl)oxy)phenyl)-3-cyclopropylurea] | < 0.05 | < 0.05 |  |  |
| O=C(Nc1ccc(Oc2ccnc3cc(OCCCN4CCOCC4)c4c(c23)OCCO4)cc1)Nc1ccc(F)cc1F [Example 78, 1-(2,4-difluorophenyl)-3-(4-((5-(3-morpholinopropoxy)-2,3-dihydro-[1,4]dioxino[2,3-f]quinolin-10-yl)oxy)phenyl)urea] | < 0.05 | < 0.05 |  |  |
| CC(=O)N1CCN(CCCOc2cc3nccc(Oc4ccc(NC(=O)NC5CC5)c(Cl)c4)c3c3c2OCCO3)CC1 [Example 57, 1-(4-((5-(3-(4-acetylpiperazin-1-yl)propoxy)-2,3-dihydro-[1,4]dioxino[2,3-f]quinolin-10-yl)oxy)-2-chlorophenyl)-3-cyclopropylurea] | < 0.05 | < 0.05 |  |  |
| CCOc1cc2nccc(Oc3ccc(NC(=O)NC4CC4)c(Cl)c3)c2c2c1OCCO2 [Example 43, 1-(2-chloro-4-((5-ethoxy-2,3-dihydro-[1,4]dioxino[2,3-f]quinolin-10-yl)oxy)phenyl)-3-cyclopropylurea] | < 0.05 | < 0.05 |  |  |
| O=C(Nc1ccc(Oc2ccnc3cc(OCCCN4CCCC4)c4c(c23)OCCO4)cc1)Nc1ccc(Cl)c(C(F)(F)F)c1 [Example 18, 1-(4-chloro-3-(trifluoromethyl)phenyl)-3-(4-((5-(3-(pyrrolidin-1-yl)propoxy)-2,3-dihydro-[1,4]dioxino[2,3-f]quinolin-10-yl)oxy)phenyl)urea] | < 0.05 | < 0.05 |  |  |
| CC(C)CNC(=O)Nc1ccc(Oc2ccnc3cc(OCCCN4CCOCC4)c4c(c23)OCCO4)cc1Cl [Example 89, 1-(2-chloro-4-((5-(3-morpholinopropoxy)-2,3-dihydro-[1,4]dioxino[2,3-f]quinolin-10-yl)oxy)phenyl)-3-isobutylurea] | < 0.05 | < 0.05 |  |  |
| CCCNC(=O)Nc1ccc(Oc2ccnc3cc(OC)c4c(c23)OCCO4)cc1Cl [Example 81, 1-(2-chloro-4-((5-methoxy-2,3-dihydro-[1,4]dioxino[2,3-f]quinolin-10-yl)oxy)phenyl)-3-propylurea] | < 0.05 | < 0.05 |  |  |
| N#CCCCOc1cc2nccc(Oc3ccc(NC(=O)NC4CC4)c(Cl)c3)c2c2c1OCCO2 [Example 93, 1-(2-chloro-4-((5-(3-cyanopropoxy)-2,3-dihydro-[1,4]dioxino[2,3-f]quinolin-10-yl)oxy)phenyl)-3-cyclopropylurea] | < 0.05 | < 0.05 |  |  |
| Cc1ccc(C(F)(F)F)cc1NC(=O)Nc1ccc(Oc2ccnc3cc(OCCCN4CCOCC4)c4c(c23)OCCO4)cc1 [Example 96, 1-(2-methyl-5-(trifluoromethyl)phenyl)-3-(4-((5-(3-morpholinopropoxy)-2,3-dihydro-[1,4]dioxino[2,3-f]quinolin-10-yl)oxy)phenyl)urea] | < 0.05 |  |  | 0.05 to 0.5 |
| COCCCOc1cc2nccc(Oc3ccc(NC(=O)NC4CCC4)c(Cl)c3)c2c2c1OCCO2 [Example 72, 1-(2-chloro-4-((5-(3-methoxypropoxy)-2,3-dihydro-[1,4]dioxino[2,3-f]quinolin-10-yl)oxy)phenyl)-3-cyclobutylurea] | < 0.05 | < 0.05 |  |  |
| COCCOc1cc2nccc(Oc3ccc(NC(=O)NC4CCC4)c(Cl)c3)c2c2c1OCCO2 [Example 70, 1-(2-chloro-4-((5-(2-methoxyethoxy)-2,3-dihydro-[1,4]dioxino[2,3-f]quinolin-10-yl)oxy)phenyl)-3-cyclobutylurea] | < 0.05 | < 0.05 |  |  |

Now from value to compound:

| IC50 (RET tyrosine kinase; read-out: RET IC50) [µM] | IC50 (VEGFR2 tyrosine kinase; read-out: VEGFR-2 IC50) [µM] | IC50 (RET tyrosine kinase) [µM] | IC50 (VEGFR2 tyrosine kinase) [µM] | Compound |
| --- | --- | --- | --- | --- |
| < 0.05 | < 0.05 |  |  | CC(C)NC(=O)Nc1ccc(Oc2ccnc3cc(OCCCN4CCOCC4)c4c(c23)OCCO4)cc1Cl [Example 88, 1-(2-chloro-4-((5-(3-morpholinopropoxy)-2,3-dihydro-[1,4]dioxino[2,3-f]quinolin-10-yl)oxy)phenyl)-3-isopropylurea] |
| < 0.05 | < 0.05 |  |  | CN1CCN(CCCOc2cc3nccc(Oc4ccc(NC(=O)NC5CC5)c(Cl)c4)c3c3c2OCCO3)CC1 [Example 56, 1-(2-chloro-4-((5-(3-(4-methylpiperazin-1-yl)propoxy)-2,3-dihydro-[1,4]dioxino[2,3-f]quinolin-10-yl)oxy)phenyl)-3-cyclopropylurea] |
| < 0.05 | < 0.05 |  |  | CC1(O)CCN(CCCOc2cc3nccc(Oc4ccc(NC(=O)Nc5ccc(Cl)c(C(F)(F)F)c5)cc4)c3c3c2OCCO3)CC1 [Example 25, 1-(4-chloro-3-(trifluoromethyl)phenyl)-3-(4-((5-(3-(4-hydroxy-4-methylpiperidin-1-yl)propoxy)-2,3-dihydro-[1,4]dioxino[2,3-f]quinolin-10-yl)oxy)phenyl)urea] |
| < 0.05 | < 0.05 |  |  | COCCOc1cc2nccc(Oc3ccc(NC(=O)NC4CC4)c(Cl)c3)c2c2c1OCCO2 [Example 49, 1-(2-chloro-4-((5-(2-methoxyethoxy)-2,3-dihydro-[1,4]dioxino[2,3-f]quinolin-10-yl)oxy)phenyl)-3-cyclopropylurea] |
| < 0.05 | < 0.05 |  |  | CN(CCCOc1cc2nccc(Oc3ccc(NC(=O)NC4CC4)c(Cl)c3)c2c2c1OCCO2)C1CCC1 [Example 63, 1-(2-chloro-4-((5-(3-(cyclobutyl(methyl)amino)propoxy)-2,3-dihydro-[1,4]dioxino[2,3-f]quinolin-10-yl)oxy)phenyl)-3-cyclopropylurea] |
| < 0.05 | 0.05 to 0.5 |  |  | COc1cc2nccc(Oc3ccc(NC(=O)Nc4ccc(Cl)c(C(F)(F)F)c4)cc3F)c2c2c1OCCO2 [Example 5, 1-(4-chloro-3-(trifluoromethyl)phenyl)-3-(3-fluoro-4-((5-methoxy-2,3-dihydro-[1,4]dioxino[2,3-f]quinolin-10-yl)oxy)phenyl)urea] |
|  |  | < 0.05 | < 0.05 | CCNC(=O)Nc1ccc(Oc2ccnc3cc(OCCCN4CCOCC4)c4c(c23)OCCO4)cc1Cl [Example 86, 1-(2-chloro-4-((5-(3-morpholinopropoxy)-2,3-dihydro-[1,4]dioxino[2,3-f]quinolin-10-yl)oxy)phenyl)-3-ethylurea] |
| < 0.05 | < 0.05 |  |  | COCCOc1cc2nccc(Oc3ccc(NC(=O)NC4CC4)c(F)c3)c2c2c1OCCO2 [Example 91, 1-cyclopropyl-3-(2-fluoro-4-((5-(2-methoxyethoxy)-2,3-dihydro-[1,4]dioxino[2,3-f]quinolin-10-yl)oxy)phenyl)urea] |
| < 0.05 | < 0.05 |  |  | O=C(Nc1ccc(Oc2ccnc3cc(OCCCN4CCOCC4)c4c(c23)OCCO4)cc1Cl)NC1CC1 [Example 55, 1-(2-chloro-4-((5-(3-morpholinopropoxy)-2,3-dihydro-[1,4]dioxino[2,3-f]quinolin-10-yl)oxy)phenyl)-3-cyclopropylurea] |
| < 0.05 | < 0.05 |  |  | O=C(Nc1ccc(Oc2ccnc3cc(OCCCN4CCCCC4)c4c(c23)OCCO4)cc1Cl)NC1CC1 [Example 54, 1-(2-chloro-4-((5-(3-(piperidin-1-yl)propoxy)-2,3-dihydro-[1,4]dioxino[2,3-f]quinolin-10-yl)oxy)phenyl)-3-cyclopropylurea] |
| < 0.05 | < 0.05 |  |  | O=C(Nc1ccc(Oc2ccnc3cc(OCC4CC4)c4c(c23)OCCO4)cc1Cl)NC1CC1 [Example 46, 1-(2-chloro-4-((5-(cyclopropylmethoxy)-2,3-dihydro-[1,4]dioxino[2,3-f]quinolin-10-yl)oxy)phenyl)-3-cyclopropylurea] |
| < 0.05 | < 0.05 |  |  | CC1(N)CCN(CCCOc2cc3nccc(Oc4ccc(NC(=O)NC5CC5)c(Cl)c4)c3c3c2OCCO3)CC1 [Example 61, 1-(4-((5-(3-(4-amino-4-methylpiperidin-1-yl)propoxy)-2,3-dihydro-[1,4]dioxino[2,3-f]quinolin-10-yl)oxy)-2-chlorophenyl)-3-cyclopropylurea] |
